# Test results reported in patent US20110236431A1, “TREATMENT OF ACUTE MYOCARDIAL INFARCTION (AMI) USING ENCAPSULATED CELLS ENCODING AND SECRETING GLP-1 PEPTIDES OR ANALOGS THEREOF” (BIOCOMPATIBLES UK LTD., priority 2008, published 2011).
# “Also recorded” adds a separate entry of the source.
# Tests used:
# DPP-IV = DPP-IV (Homo sapiens, UniProt P27487); assay: In vitro plasma stability of GLP-1 peptides secreted from human cells; details: cell culture supernatant, human lymphocyte enriched plasma, 37° C., 3 or additionally 6 and 9 hours
# Sequence of DPP-IV (P27487 whole entry): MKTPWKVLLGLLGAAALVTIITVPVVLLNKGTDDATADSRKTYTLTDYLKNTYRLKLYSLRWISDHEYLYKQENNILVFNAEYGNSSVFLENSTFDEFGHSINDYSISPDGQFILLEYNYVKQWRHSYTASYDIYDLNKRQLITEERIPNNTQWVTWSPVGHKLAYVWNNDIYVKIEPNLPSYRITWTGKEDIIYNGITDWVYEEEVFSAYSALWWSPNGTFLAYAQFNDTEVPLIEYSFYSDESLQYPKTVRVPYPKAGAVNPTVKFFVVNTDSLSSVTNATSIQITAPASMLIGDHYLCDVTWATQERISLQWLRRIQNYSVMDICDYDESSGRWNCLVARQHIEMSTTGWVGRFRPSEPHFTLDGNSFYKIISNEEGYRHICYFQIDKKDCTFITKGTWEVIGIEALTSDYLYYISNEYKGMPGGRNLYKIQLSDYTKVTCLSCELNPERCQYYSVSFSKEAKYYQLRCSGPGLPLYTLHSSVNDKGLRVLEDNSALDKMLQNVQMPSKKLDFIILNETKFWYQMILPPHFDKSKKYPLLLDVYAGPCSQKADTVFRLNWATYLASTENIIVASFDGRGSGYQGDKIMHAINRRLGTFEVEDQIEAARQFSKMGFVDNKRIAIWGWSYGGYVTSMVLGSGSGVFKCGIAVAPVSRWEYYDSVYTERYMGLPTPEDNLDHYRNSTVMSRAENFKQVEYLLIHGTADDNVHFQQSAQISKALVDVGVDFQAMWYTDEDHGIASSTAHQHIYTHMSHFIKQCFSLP
# Rin-5F cells = assay: Anti-apoptotic efficacy, cycloheximid-induced apoptosis; type: cell-based, rat; details: 24 hours
# Procedure: 40.000 Rin-5F cells were seeded per 96 well and cultivated for 2 days in RPMI supplemented with 1% L-Glutamin and 10% fetal calf serum. […] After 24 hours cell viability is quantified using AlamarBlue.
# [1] = system: patients with AMI and severe systolic dysfunction; details: GLP-1 infusion added to standard therapy; cited from earlier work
substance,measurement,setting,value
GLP1(7-37)-IP2-GLP1(7-37) [construct #217],stability to DPP-IV degradation in plasma (active GLP-1 ELISA),DPP-IV,more resistant to degradation; also recorded: nearly fully stabilized to DPP-IV degradation
GLP-1(7-37)-IP2-GLP-1(7-37) [CM1],cell viability,"Rin-5F cells; CHX 10 μg/ml and 100 μg/ml, different concentrations of CM1",significant (p<0.01) increase of cell viability
same,"anti-apoptotic effect (cell viability, AlamarBlue)","Rin-5F cells; cycloheximid, serum-free, 1 nM CM1, p<0.01",significant anti-apoptotic effect
GLP-1(7-37)-IP2-extended with 11 AA [construct #317],stability to DPP-IV degradation in plasma (active GLP-1 ELISA),DPP-IV,more resistant to degradation
"Glucagon Like Peptide-1 (HAEGTFTSDVSSYLEGQAAKEFIAWLVKGRG) [GLP-1, naturally occurring incretin, infused in literature studies]",regional and global LV function,[1],improved regional and global LV function
